The source made the active and inactive calls.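 The calls were made as follows: active = caspase luminescence falls with dose and the half-maximal concentration AC50 from the fitted curve is at or below a set limit; inconclusive = flat fit at 30 to 70% signal loss, or invalid fit; inactive = AC50 above the limit, or signal rises instead.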
Test system: INS-1E cytokine-induced caspase-3/7, Caspase-Glo luminescence, 48 h
Experiment: suppression of cytokine-driven beta-cell apoptosis – INS-1E rat cells, luminescence, orthogonal assay for beta-cell apoptosis protection project, dose response (AID 463206)

SMILES | AC50
Cc1ccc(S(=O)(=O)/N=C2\C(=O)c3ccccc3C([O-])=C2n2cc[n+](CCC(C)C)c2)cc1 | > 26 µM (inactive)
C#CCOCCOCCOCCNc1nc(N2CCN(C(=O)CCCCCCCCCCNC(=O)[C@H]([C@@H](C)CC)n3cc(CCCCCN)nn3)CC2)nc(N2CCN(C(=O)CCCCCCCCCCNC(=O)[C@H]([C@@H](C)CC)n3cc(CCCCN=C(N)N)nn3)CC2)n1 | > 26 µM (inactive)
CCOC(=O)c1c(NC(=O)C[n+]2ccc(Cc3ccccc3)cc2)sc(C)c1C | > 26 µM (inactive)
COCCN(C(=O)COC(=O)C1CCC(C(C)(C)C)CC1)c1c(N)n(Cc2ccccc2)c(=O)[nH]c1=O (stereo unspecified) | > 26 µM (inactive)
O=C(Nc1nc(-c2ccccn2)cs1)Nc1ccc(F)cc1F | > 26 µM (inactive)
O=C(/C=C/NNC(=O)c1ccccc1)c1ccc([N+](=O)[O-])cc1 | > 26 µM (inactive)
Cc1cccc(CNc2ccc(S(=O)(=O)N3CCCCC3)cc2)c1 | > 26 µM (inactive)
COc1cccc(/C=N/Nc2ccnc(=O)[nH]2)c1O | > 26 µM (inactive)
CN1/C(=C\C(=O)COC(=O)c2ccc(O)c(O)c2)C(C)(C)c2ccccc21 | > 26 µM (inactive)
Cc1ccc(F)c([C@H]2C3C=CCC(c4ccccc4)C3C(=O)N2Cc2ccccc2)c1 (stereo partly specified) | > 26 µM (inactive)
Cc1cccc(C)c1NC(=O)CNC(=O)c1c(C)nn(C)c1Cl | > 26 µM (inactive)
Cc1cccc(N2C(=S)N=C(Nc3c(C)cccc3C)C23CCOC(C)(C)C3)c1 (stereo unspecified) | > 26 µM (inactive)
O=C(Nc1ccc(Cl)cc1)Nc1ccc(N2CCCC2)c(S(=O)(=O)Nc2ccccc2Cl)c1 | > 26 µM (inactive)
COc1ccc2c(c1)[nH]c1c(N3CCN(Cc4ccc5c(c4)OCO5)CC3)ncnc12 | > 26 µM (inactive)
Cc1ccc(NC(=O)Cn2c(=O)oc3cc(S(=O)(=O)N4CCC(C)CC4)ccc32)cc1C | > 26 µM (inactive)
COC(=O)C1=C(C)N(Cc2ccccc2)C(=NCc2cccc(C(F)(F)F)c2)N[C@H]1c1cccc(C(F)(F)F)c1 | > 26 µM (inactive)
O=C(N/N=C/c1cc(Cl)ccc1O)C(=O)Nc1ccccc1OC(F)(F)C(F)F | > 26 µM (inactive)
Fc1ccc(Oc2nc(-c3ccccn3)nc3ccccc23)cc1 | > 26 µM (inactive)
Cc1cc(N/N=C/c2ccc(O)cc2O)nc(-n2nc(C)cc2C)n1 | > 26 µM (inactive)
O=C(CCCCC(=O)Nc1ccc(F)cc1F)Nc1ccc(F)cc1F | > 26 µM (inactive)
CCOc1ccc(S(=O)(=O)N(C(=O)c2ccco2)c2cc3sc(=O)oc3c3ccccc23)cc1 | > 26 µM (inactive)
CCCOc1ccc(Cc2c(Cl)nc(SC)nc2NC)cc1 | > 26 µM (inactive)
Fc1ccc(-c2cc(-c3nnc4n3CCCCC4)c3ccccc3n2)cc1 | > 26 µM (inactive)

SMILES | AC50
N#Cc1c(N2CCCCC2)nc(N2CCCCC2)c2c1CCN(Cc1ccccc1)C2 | > 26 µM (inactive)
COc1ccc(-c2nn(-c3ccccc3)cc2/C=N/N2C(=O)CSC2=S)cc1 | > 26 µM (inactive)
Cc1cc(Nc2cccc(Cl)c2)nc(NCc2ccccc2)n1 | > 26 µM (inactive)
CC(=O)c1c(C)oc2c1C(=O)c1ccccc1C2=O | > 26 µM (inactive)
COc1cc(C(=O)N/N=C(\C)c2ccccn2)cc(OC)c1OC | > 26 µM (inactive)
Cc1sc2cc3c(c(C(=O)c4ccccc4)[n+]2c1C)-c1cccc2cccc-3c12 | > 26 µM (inactive)
Cc1ccccc1-c1cc(C(=O)Nc2sc(C)c(C)c2C(N)=O)c2ccccc2n1 | > 26 µM (inactive)
CC(=O)c1ccc(OCc2cc(C(=O)N3CCCCC3c3cccnc3)no2)cc1 (stereo unspecified) | > 26 µM (inactive)
c1ccc(Nc2nc(NCc3ccco3)c3ccccc3n2)cc1 | 23.7 µM
Cc1cccc(NC(=S)Nc2ccc3cn[nH]c3c2)c1 | > 26 µM (inactive)
CCCCOc1cc(NCc2ccccc2)c2ncn(C(C)C)c2c1 | > 26 µM (inactive)
N#CC(c1ccc(Cl)cc1)c1ccc2c(C(F)(F)F)cc(C(F)(F)F)nc2n1 (stereo unspecified) | > 26 µM (inactive)
CC(=O)c1sc(NC(=O)C2(F)C(F)(F)C(F)(F)C(F)(F)C(F)(F)C2(F)F)nc1C | > 26 µM (inactive)
COc1ccc(C)cc1Nc1n[n+](-c2ccccc2)c(-c2c(OC)ccc3ccccc23)s1 | > 26 µM (inactive)
Cc1ccc(Oc2nc(-c3ccccn3)nc3ccccc23)cc1 | > 26 µM (inactive)
Cc1ccc(-c2ccc(/C=C3\C(=O)ON=C3c3ccccc3)o2)c([N+](=O)[O-])c1 | > 26 µM (inactive)
O=C(NCc1ccccn1)c1cc(-c2ccc(Cl)cc2)oc1C(F)(F)F | > 26 µM (inactive)
COc1ccc2cc(C(=O)N/N=C/c3sc4ccccc4c3O)ccc2c1 | > 26 µM (inactive)
O=C(NNC(=O)c1ccccc1OCc1ccccc1)c1ccccc1O | > 26 µM (inactive)
CC1(C(=O)OCC(=O)N2c3ccccc3Sc3ccccc32)CC1(Cl)Cl (stereo unspecified) | > 26 µM (inactive)
Cc1cc(C(=O)c2ccc3ccccc3c2)c(C)o1 | > 26 µM (inactive)
CC1=NN(c2nc(-c3ccc(C)cc3)cs2)C(=O)C1N=Nc1ccc(C(N)=O)cc1 (stereo unspecified) | > 26 µM (inactive)
Nc1nonc1-n1nnc(C(=O)N/N=C/c2cc(Br)ccc2O)c1CNc1ccccc1 | > 26 µM (inactive)

Reference: PubChem BioAssay AID463206 (Broad Institute, 2010)
